{"source": "patent US8802597B2", "about": "“Herbicidal pyrimidines” (E I du Pont de Nemours and Company, priority 2003, dated 2014)", "assay_type_in_all_cases": "in vivo", "key": {"[1]": {"test_system": "barnyardgrass (Echinochloa crus-galli)", "experiment": "Test A pre/postemergence", "conditions": "Echinochloa crus-galli, 240 h, read-out: Plant response rating, Barnyardgrass; for pest or weed control at 125 g/ha: 125 g ai/ha; for pest or weed control at 500 g/ha: 500 g ai/ha", "how_it_was_run": "(§1)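 Seeds in loam–sand blend received preemergence directed soil spray and, concurrently, postemergence application (plants 2–10 cm, 1–2-leaf stage) of compound in non-phytotoxic solvent with surfactant. After about ten days in greenhouse, injury rated visually versus untreated controls, 0 (no effect) to 100 (complete control).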"}, "[2]": {"test_system": "crabgrass (Digitaria sanguinalis)", "experiment": "Test A pre/postemergence", "conditions": "Digitaria sanguinalis, 240 h, read-out: Plant response rating, Crabgrass; for pest or weed control at 125 g/ha: 125 g ai/ha; for pest or weed control at 500 g/ha: 500 g ai/ha", "how_it_was_run": "as §1"}, "[3]": {"test_system": "giant foxtail (Setaria faberi)", "experiment": "Test A pre/postemergence", "conditions": "Setaria faberi, 240 h, read-out: Plant response rating, Foxtail, Giant; for pest or weed control at 125 g/ha: 125 g ai/ha; for pest or weed control at 500 g/ha: 500 g ai/ha", "how_it_was_run": "as §1"}, "[4]": {"test_system": "morningglory (Ipomoea spp.)", "experiment": "Test A pre/postemergence", "conditions": "Ipomoea, 240 h, read-out: Plant response rating, Morningglory; for pest or weed control at 125 g/ha: 125 g ai/ha; for pest or weed control at 500 g/ha: 500 g ai/ha", "how_it_was_run": "as §1"}, "[5]": {"test_system": "redroot pigweed (Amaranthus retroflexus)", "experiment": "Test A pre/postemergence", "conditions": "Amaranthus retroflexus, 240 h, read-out: Plant response rating, Pigweed; for pest or weed control at 125 g/ha: 125 g ai/ha; for pest or weed control at 500 g/ha: 500 g ai/ha", "how_it_was_run": "as §1"}, "[6]": {"test_system": "velvetleaf (Abutilon theophrasti)", "experiment": "Test A pre/postemergence", "conditions": "Abutilon theophrasti, 240 h, read-out: Plant response rating, Velvetleaf; for pest or weed control at 125 g/ha: 125 g ai/ha; for pest or weed control at 500 g/ha: 500 g ai/ha", "how_it_was_run": "as §1"}, "[7]": {"test_system": "cocklebur (Xanthium strumarium)", "experiment": "Test C pre/postemergence", "conditions": "Xanthium strumarium, post-emergence, Postemergence", "how_it_was_run": "(§2)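 Pre: seeds planted, sprayed same day. Post: 1- to 4-leaf plants (2–18 cm). Formulation: non-phytotoxic solvent + surfactant. Greenhouse 12–14 d; visual % control vs untreated, 0–100.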"}, "[8]": {"test_system": "common ragweed (Ambrosia elatior)", "experiment": "Test C pre/postemergence", "conditions": "Ambrosia artemisiifolia, post-emergence, Postemergence", "how_it_was_run": "as §2"}, "corn (Zea mays)": {"test_system": "corn (Zea mays)", "experiment": "Test C pre/postemergence", "conditions": "Zea mays, post-emergence, Postemergence", "how_it_was_run": "as §2"}, "[9]": {"test_system": "lambsquarters (Chenopodium album)", "experiment": "Test C pre/postemergence", "conditions": "Chenopodium album, post-emergence, Postemergence", "how_it_was_run": "as §2"}, "[10]": {"test_system": "chickweed (Stellaria media)", "experiment": "Test C postemergence", "conditions": "Stellaria media, post-emergence", "how_it_was_run": "as §2"}, "[11]": {"conditions": "post-emergence, Postemergence, 0 to 100 scale (0 no effect, 100 complete control)"}, "[12]": {"conditions": "pre-emergence, Preemergence, 0 to 100 scale where 0 is no effect and 100 is complete control, approximately ten days"}}, "note": "Read-outs that look alike come from different tables or passages of the source."}
{"smiles": "CCOC(=O)c1nc(-c2ccc(Br)cc2)nc(N)c1Cl", "note": "[Compound 94, ethyl 6-amino-2-(4-bromophenyl)-5-chloro-4-pyrimidinecarboxylate]", "values": [{"measurement": "pest or weed control at 125 g/ha", "setting": "[1]; [11]", "value": 30, "unit": "%"}, {"measurement": "pest or weed control at 500 g/ha", "setting": "[1]; [11]", "value": 60, "unit": "%"}, {"measurement": "pest or weed control at 125 g/ha", "setting": "[1]; [12]", "value": 5, "unit": "%"}, {"measurement": "pest or weed control at 500 g/ha", "setting": "[1]; [12]", "value": 40, "unit": "%"}, {"measurement": "pest or weed control at 125 g/ha", "setting": "[2]; [11]", "value": 35, "unit": "%"}, {"measurement": "pest or weed control at 500 g/ha", "setting": "[2]; [11]", "value": 50, "unit": "%"}, {"measurement": "pest or weed control at 125 g/ha", "setting": "[2]; [12]", "value": 45, "unit": "%"}, {"measurement": "pest or weed control at 500 g/ha", "setting": "[2]; [12]", "value": 55, "unit": "%"}, {"measurement": "pest or weed control at 125 g/ha", "setting": "[3]; [11]", "value": 45, "unit": "%"}, {"measurement": "pest or weed control at 500 g/ha", "setting": "[3]; [11]", "value": 65, "unit": "%"}, {"measurement": "pest or weed control at 125 g/ha", "setting": "[3]; [12]", "value": 20, "unit": "%"}, {"measurement": "pest or weed control at 500 g/ha", "setting": "[3]; [12]", "value": 40, "unit": "%"}, {"measurement": "pest or weed control at 125 g/ha", "setting": "[4]; [11]", "value": 70, "unit": "%"}, {"measurement": "pest or weed control at 500 g/ha", "setting": "[4]; [11]", "value": 75, "unit": "%"}, {"measurement": "pest or weed control at 125 g/ha", "setting": "[4]; [12]", "value": 30, "unit": "%"}, {"measurement": "pest or weed control at 500 g/ha", "setting": "[4]; [12]", "value": 35, "unit": "%"}, {"measurement": "pest or weed control at 125 g/ha", "setting": "[5]; [11]", "value": 80, "unit": "%"}, {"measurement": "pest or weed control at 500 g/ha", "setting": "[5]; [11]", "value": 85, "unit": "%"}, {"measurement": "pest or weed control at 125 g/ha", "setting": "[5]; [12]", "value": 90, "unit": "%"}, {"measurement": "pest or weed control at 500 g/ha", "setting": "[5]; [12]", "value": 95, "unit": "%"}, {"measurement": "pest or weed control at 125 g/ha", "setting": "[6]; [11]", "value": 90, "unit": "%"}, {"measurement": "pest or weed control at 500 g/ha", "setting": "[6]; [11]", "value": 90, "unit": "%"}, {"measurement": "pest or weed control at 125 g/ha", "setting": "[6]; [12]", "value": 75, "unit": "%"}, {"measurement": "pest or weed control at 500 g/ha", "setting": "[6]; [12]", "value": 90, "unit": "%"}, {"measurement": "pest or weed control at 16 g/ha", "setting": "[7]; 16 g ai/ha, read-out: Plant response rating (scale of 0 to 100), Cocklebur", "value": 75, "unit": "%"}, {"measurement": "pest or weed control at 31 g/ha", "setting": "[7]; 31 g ai/ha, read-out: Plant response rating (scale of 0 to 100), Cocklebur", "value": 80, "unit": "%"}, {"measurement": "pest or weed control at 62 g/ha", "setting": "[7]; 62 g ai/ha, read-out: Plant response rating (scale of 0 to 100), Cocklebur", "value": 90, "unit": "%"}, {"measurement": "pest or weed control at 125 g/ha", "setting": "[7]; 125 g ai/ha, scale 0 to 100 (0 no effect, 100 complete control), read-out: Cocklebur plant response rating", "value": 100, "unit": "%"}, {"measurement": "pest or weed control at 16 g/ha", "setting": "[8]; 16 g ai/ha, read-out: Plant response rating (scale of 0 to 100), Ragweed", "value": 90, "unit": "%"}, {"measurement": "pest or weed control at 31 g/ha", "setting": "[8]; 31 g ai/ha, read-out: Plant response rating (scale of 0 to 100), Ragweed", "value": 90, "unit": "%"}, {"measurement": "pest or weed control at 62 g/ha", "setting": "[8]; 62 g ai/ha, read-out: Plant response rating (scale of 0 to 100), Ragweed", "value": 95, "unit": "%"}, {"measurement": "pest or weed control at 125 g/ha", "setting": "[8]; 125 g ai/ha, scale 0 to 100 (0 no effect, 100 complete control), read-out: Ragweed plant response rating", "value": 100, "unit": "%"}, {"measurement": "Corn plant response rating (crop injury, 0 = no effect, 100 = complete kill) at 16 g/ha", "setting": "corn (Zea mays); 16 g ai/ha, read-out: Plant response rating (scale of 0 to 100), Corn", "value": 10, "unit": "%"}, {"measurement": "Corn plant response rating (crop injury, 0 = no effect, 100 = complete kill) at 31 g/ha", "setting": "corn (Zea mays); 31 g ai/ha, read-out: Plant response rating (scale of 0 to 100), Corn", "value": 35, "unit": "%"}, {"measurement": "Corn plant response rating (crop injury, 0 = no effect, 100 = complete kill) at 62 g/ha", "setting": "corn (Zea mays); 62 g ai/ha, read-out: Plant response rating (scale of 0 to 100), Corn", "value": 35, "unit": "%"}, {"measurement": "Corn plant response rating (crop injury, 0 = no effect, 100 = complete kill) at 125 g/ha", "setting": "corn (Zea mays); 125 g ai/ha, scale 0 to 100 (0 no effect, 100 complete control), read-out: Corn plant response rating", "value": 60, "unit": "%"}, {"measurement": "pest or weed control at 16 g/ha", "setting": "[9]; 16 g ai/ha, read-out: Plant response rating (scale of 0 to 100), Lambsquarters", "value": 95, "unit": "%"}, {"measurement": "pest or weed control at 31 g/ha", "setting": "[9]; 31 g ai/ha, read-out: Plant response rating (scale of 0 to 100), Lambsquarters", "value": 95, "unit": "%"}, {"measurement": "pest or weed control at 62 g/ha", "setting": "[9]; 62 g ai/ha, read-out: Plant response rating (scale of 0 to 100), Lambsquarters", "value": 95, "unit": "%"}, {"measurement": "pest or weed control at 125 g/ha", "setting": "[9]; 125 g ai/ha, scale 0 to 100 (0 no effect, 100 complete control), read-out: Lambsquarters plant response rating", "value": 100, "unit": "%"}, {"measurement": "pest or weed control at 31 g/ha", "setting": "[10]; 31 g ai/ha, read-out: Plant response rating (scale of 0 to 100), Chickweed", "value": 45, "unit": "%"}, {"measurement": "pest or weed control at 62 g/ha", "setting": "[10]; 62 g ai/ha, read-out: Plant response rating (scale of 0 to 100), Chickweed", "value": 50, "unit": "%"}, {"measurement": "pest or weed control at 125 g/ha", "setting": "[10]; 125 g ai/ha, scale 0 to 100 (0 no effect, 100 complete control), read-out: Chickweed plant response rating", "value": 95, "unit": "%"}]}
